For this experiment, the target named is T1, p38α (Homo sapiens, UniProt Q16539).
T1 construct: purchased Calbiochem 559324; host or cells: E. coli
As to the kind of experiment: p38 Kinase Assay (ATF-2 phosphorylation ELISA). It is filed as biochemical. The note with it: human recombinant p38 activated with MKK6; 2 h preincubation; ATP 250 μM; 1% DMSO; read-out: p38α inhibition. How it is done: Human recombinant p38 enzyme expressed in E. coli and activated by incubation with MKK6 enzyme (Calbiochem #559324) is used as source of enzyme activity.
The assay is carried in high binding, clear, flat bottom 96 well assay plates which have been coated with recombinant ATF-2 (Biosource #PHF0043). Test compounds are incubated with p38 kinase for 2 h prior to initiating the kinase assay by the addition of ATP to obtain an assay concentration of 250 μM. Phosphorylation of ATF-2 is detected and quantified using an ELISA. This consists of sequential incubation in the presence of anti-phospho-ATF2, biotinylated anti-IgG and streptavidin-HRP. Incubation with an HRP chromogenic substrate (TMB) results in absorbance that is proportional to the amount of phosphorylated substrate produced. Absorbance is detected using a multiwell plate reader.
Compounds are diluted in DMSO prior to addition to assay buffer, the final DMSO concentration in the assay being 1%.
The IC50 is defined as the concentration at which a given compound achieves 50% inhibition of control.
Background: ELISA stands for enzyme-linked immunosorbent assay.

T1 sequence (Q16539 whole entry): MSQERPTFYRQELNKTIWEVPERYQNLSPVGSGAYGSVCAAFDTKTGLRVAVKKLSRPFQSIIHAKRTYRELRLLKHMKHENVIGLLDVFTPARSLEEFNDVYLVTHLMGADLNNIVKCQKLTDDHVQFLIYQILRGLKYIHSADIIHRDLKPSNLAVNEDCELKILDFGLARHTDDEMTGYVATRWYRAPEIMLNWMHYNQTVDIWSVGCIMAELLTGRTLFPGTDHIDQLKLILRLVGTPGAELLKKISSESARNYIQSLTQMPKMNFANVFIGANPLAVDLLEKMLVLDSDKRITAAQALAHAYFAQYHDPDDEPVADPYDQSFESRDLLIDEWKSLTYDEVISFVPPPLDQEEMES

With `NC(=O)C(c1ccc(Sc2ccccc2CNC(=O)c2cc(F)cc(N3CCOCC3)c2)nn1)c1c(Cl)cccc1Cl` (centres unmarked) [Example 1, N-[2-({6-[2-Amino-1-(2,6-dichlorophenyl)-2-oxoethyl]pyridazin-3-yl}sulfanyl)benzyl]-3-fluoro-5-(morpholin-4-yl)benzamide], the IC50 was below 10 nM.
In the case of `O=C(NCc1ccccc1Sc1ccc2c(-c3c(Cl)cccc3Cl)c(=O)ncn2n1)c1cc(F)cc(N2CCOCC2)c1` [Example 2, N-(2-{[5-(2,6-Dichlorophenyl)-6-oxo-6H-pyrimido[1,6-b]pyridazin-2-yl]sulfanyl}benzyl)-3-fluoro-5-(morpholin-4-yl)benzamide], the IC50 was below 100 nM.

The values above are taken from US8450314B2, “Pyrimidopyridazine derivatives useful as P38 MAPK inhibitors” (Chiesi Farmaceutici S.p.A., priority 2009, dated 2013).
